# Target: T1, HPK1 (Homo sapiens, UniProt Q92918)
# T1 construct: A HiBiT tag was introduced by CRISPR on the N terminus of HPK1 in Jurkat cells; host or cells: Jurkat cells (ATCC TIB-152), monoclonal line with CRISPR knock-in of HiBiT at the endogenous HPK1 locus
# Test: HPK1 Cellular HiBit Degradation Assay
# Format: cell-based
# Conditions: HiBiT HPK1 Jurkat cells, 24 hrs; for DC50: concentration at which 50% of HPK1 was remaining, read-out: DC50 Category; for Dmax: Jurkat, maximum degradation vs DMSO vehicle control, read-out: Dmax Category
# In short: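 Degraders are dosed in an 11-point series (10 uM to 0.1 nM final) onto Jurkat cells carrying an N-terminal HiBiT tag on endogenous HPK1. After 24 hrs at 37° C, lysis-based HiBiT luminescence quantifies remaining HPK1 relative to vehicle, and curve fitting gives DC50 and Dmax.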
# T1 sequence (Q92918 whole entry): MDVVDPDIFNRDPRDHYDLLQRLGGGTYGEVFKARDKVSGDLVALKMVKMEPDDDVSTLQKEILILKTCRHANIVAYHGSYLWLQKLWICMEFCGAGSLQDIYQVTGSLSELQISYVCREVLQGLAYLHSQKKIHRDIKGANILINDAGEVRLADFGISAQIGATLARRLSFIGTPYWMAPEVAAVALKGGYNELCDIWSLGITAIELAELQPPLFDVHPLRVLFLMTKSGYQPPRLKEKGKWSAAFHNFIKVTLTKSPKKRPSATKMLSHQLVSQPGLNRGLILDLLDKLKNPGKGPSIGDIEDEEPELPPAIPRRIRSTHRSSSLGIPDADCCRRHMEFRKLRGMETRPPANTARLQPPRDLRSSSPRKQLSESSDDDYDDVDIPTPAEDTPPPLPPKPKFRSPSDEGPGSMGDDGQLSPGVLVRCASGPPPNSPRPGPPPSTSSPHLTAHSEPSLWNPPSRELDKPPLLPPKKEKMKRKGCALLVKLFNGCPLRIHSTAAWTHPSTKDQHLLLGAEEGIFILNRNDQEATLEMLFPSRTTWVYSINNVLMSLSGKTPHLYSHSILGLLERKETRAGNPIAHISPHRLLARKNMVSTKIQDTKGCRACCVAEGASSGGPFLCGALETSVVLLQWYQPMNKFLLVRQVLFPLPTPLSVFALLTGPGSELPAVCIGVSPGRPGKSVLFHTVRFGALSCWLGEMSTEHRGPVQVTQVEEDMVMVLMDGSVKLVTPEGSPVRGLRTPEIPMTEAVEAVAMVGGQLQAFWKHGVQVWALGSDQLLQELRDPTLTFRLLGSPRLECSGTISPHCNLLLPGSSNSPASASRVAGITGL
DC50 [nM],Dmax [%],SMILES
< 100,70 to 85,"CC(C)n1cnc2cc(-c3ccc4c(c3)N([C@H]3C[C@@H](N5CCCCC5)C3)C(=O)C43CCN(C(=O)[C@H]4C[C@H]5C[C@@H]4CN5C(=O)C4CCN(c5ccc(C6CCC(=O)NC6=O)cn5)CC4)CC3)nc(NC3CC3)c21 (mixture of isomers) [Example 261, (3RS)-3-(6-{4-[(1R,4S,5S)-5-({6-[4-(cyclopropylamino)-3-(propan-2-yl)-3H-imidazo[4,5-c]pyridin-6-yl]-2-oxo-1-[(1S,3S)-3-(piperidin-1-yl)cyclobutyl]-1,2-dihydrospiro[indole-3,4′-piperidin]-1′-yl}carbonyl)-2-azabicyclo[2.2.1]heptane-2-carbonyl]piperidin-1-yl}pyridin-3-yl)piperidine-2,6-dione]"
100 to 500,50 to 70,"Cc1cc(F)c(Nc2nc(-c3ccc4c(c3)N([C@H]3C[C@@H](N5CCCCC5)C3)C(=O)C43CCN(C(=O)C4=CCN(C(=O)C5CCN(c6ccc7c(c6)C(=O)N(C6CCC(=O)NC6=O)C7=O)CC5)CC4)CC3)cc3ncn(C(C)C)c23)cc1C(=O)NC(C)C (mixture of isomers) [Example 37, 5-[(6-{1′-[1-(1-{2-[(3RS)-2,6-dioxopiperidin-3-yl]-1,3-dioxo-2,3-dihydro-1H-isoindol-5-yl}piperidine-4-carbonyl)-1,2,3,6-tetrahydropyridine-4-carbonyl]-2-oxo-1-[(1S,3S)-3-(piperidin-1-yl)cyclobutyl]-1,2-dihydrospiro[indole-3,4′-piperidin]-6-yl}-3-(propan-2-yl)-3H-imidazo[4,5-c]pyridin-4-yl)amino]-4-fluoro-2-methyl-N-(propan-2-yl)benzamide]"
< 100,70 to 85,"CC(C)n1cnc2cc(-c3ccc4c(c3)N([C@H]3C[C@@H](N5CCCCC5)C3)C(=O)C43CCN(C(=O)C4(C)CCN(C(=O)C5CCN(c6ccc(C7CCC(=O)NC7=O)cn6)CC5)CC4)CC3)nc(N3CC(C#N)C3)c21 (stereo partly drawn) [Example 175, 1-{6-[1′-(1-{1-[5-(2,6-dioxopiperidin-3-yl)pyridin-2-yl]piperidine-4-carbonyl}-4-methylpipe-ridine-4-carbonyl)-2-oxo-1-[(1S,3S)-3-(piperidin-1-yl)cyclobutyl]-1,2-dihydrospiro[indole-3,4′-pi-peridin]-6-yl]-3-(propan-2-yl)-3H-imidazo[4,5-c]pyridin-4-yl}azetidine-3-carbonitrile]"
< 100,70 to 85,"CC(C)n1cnc2cc(-c3ccc4c(c3)N([C@H]3C[C@@H](N5CCCCC5)C3)C(=O)C43CCN(C(=O)[C@@H]4CCN(C(=O)C5CCN(c6ccc(C7CCC(=O)NC7=O)cn6)CC5)C4)CC3)nc(NC3CC3)c21 (mixture of isomers) [Example 23, (3RS)-3-(6-{4-[(3R)-3-({6-[4-(cyclopropylamino)-3-(propan-2-yl)-3H-imidazo[4,5-c]pyridin-6-yl]-2-oxo-1-[(1S,3S)-3-(piperidin-1-yl)cyclobutyl]-1,2-dihydrospiro[indole-3,4′-piperidin]-1′-yl}carbonyl)pyrrolidine-1-carbonyl]piperidin-1-yl}pyridin-3-yl)piperidine-2,6-dione]"
< 100,> 85,"CC(C)n1cnc2cc(-c3ccc4c(c3)N([C@H]3C[C@@H](N5CCCCC5)C3)C(=O)C43CCN(C(=O)[C@@H]4CCN(C(=O)[C@H]5CC[C@H](Oc6ccc(C7CCC(=O)NC7=O)cn6)CC5)C4)CC3)nc(Nc3ccccc3F)c21 (mixture of isomers) [Example 17, (3RS)-3-(6-{1[(1R,4R)-4-[(3R)-3-[(6-{4-[(2-fluorophenyl)amino]-3-(propan-2-yl)-3H-imidazo[4,5-c]pyridin-6-yl}-2-oxo-1-[(1S,3S)-3-(piperidin-1-yl)cyclobutyl]-1,2-dihydrospiro[indole-3,4′-piperidin]-1′-yl)carbonyl]pyrrolidine-1-carbonyl]cyclohexyl]oxy}pyridin-3-yl)piperidine-2,6-dione]"
100 to 500,70 to 85,"CC(C)n1cnc2cc(-c3ccc4c(c3)N([C@H]3C[C@@H](N5CCCCC5)C3)C(=O)C43CCN(C(=O)[C@H]4CC[C@@H](C(=O)N5CCN(c6ccc7c(c6)C(=O)N(C6CCC(=O)NC6=O)C7=O)CC5)CC4)CC3)nc(Nc3ccccc3F)c21 (mixture of isomers) [Example 31, 2-[(3RS)-2,6-dioxopiperidin-3-yl]-5-{4-[(1S,4s)-4-[(6-{4-[(2-fluorophenyl)amino]-3-(propan-2-yl)-3H-imidazo[4,5-c]pyridin-6-yl}-2-oxo-1-[(1S,3S)-3-(piperidin-1-yl)cyclobutyl]-1,2-dihydrospiro[indole-3,4′-piperidin]-1′-yl)carbonyl]cyclohexanecarbonyl]piperazin-1-yl}-2,3-dihydro-1H-isoindole-1,3-dione]"
100 to 500,50 to 70,"CC(C)n1cnc2cc(-c3ccc4c(c3)N([C@H]3C[C@@H](N5CCOCC5)C3)C(=O)C43CCN(C(=O)C4(C)CCN(C(=O)C5CCN(c6ccc(C7CCC(=O)NC7=O)cn6)CC5)CC4)CC3)nc(NC3CC3)c21 (mixture of isomers) [Example 216, (3RS)-3-(6-{4-[4-({6-[4-(cyclopropylamino)-3-(propan-2-yl)-3H-imidazo[4,5-c]pyridin-6-yl]-2-oxo-1-[(1S,3S)-3-(MORPHOLIN-4-yl)cyclobutyl]-1,2-dihydrospiro[indole-3,4′-piperidin]-1′-yl}carbonyl)-4-methylpiperidine-1-carbonyl]piperidin-1-yl}pyridin-3-yl)piperidine-2,6-dione]"
< 100,70 to 85,"CC(C)n1cnc2cc(-c3ccc4c(c3)N([C@H]3C[C@@H](N5CCCCC5)C3)C(=O)C43CCN(C(=O)C4CCN(C(=O)C5CCN(c6ccc(C7CCC(=O)NC7=O)cc6)CC5)CC4)CC3)nc(Nc3ccccc3F)c21 (mixture of isomers) [Example 67, (3RS)-3-[4-(4-{4-[(6-{4-[(2-fluorophenyl)amino]-3-(propan-2-yl)-3H-imidazo[4,5-c]pyridin-6-yl}-2-oxo-1-[(1S,3S)-3-(piperidin-1-yl)cyclobutyl]-1,2-dihydrospiro[indole-3,4′-piperidin]-1′-yl)carbonyl]piperidine-1-carbonyl}piperidin-1-yl)phenyl]piperidine-2,6-dione]"
< 100,> 85,"CC(C)n1cnc2cc(-c3ccc4c(c3)N([C@H]3C[C@@H](N5CCCCC5)C3)C(=O)C43CCN(C(=O)C4CN(C(=O)C5CCN(c6ccc(C7CCC(=O)NC7=O)cn6)CC5)C4)CC3)nc(Nc3ccccc3F)c21 (mixture of isomers) [Example 242, (3RS)-3-[6-(4-{3-[(6-{4-[(2-fluorophenyl)amino]-3-(propan-2-yl)-3H-imidazo[4,5-c]pyridin-6-yl}-2-oxo-1-[(1S,3S)-3-(piperidin-1-yl)cyclobutyl]-1,2-dihydrospiro[indole-3,4′-piperidin]-1′-yl)carbonyl]azetidine-1-carbonyl}piperidin-1-yl)pyridin-3-yl]piperidine-2,6-dione]"
100 to 500,50 to 70,"CC(C)n1cnc2cc(-c3ccc4c(c3)N([C@H]3C[C@@H](N5CCCCC5)C3)C(=O)C43CCN(C(=O)C4CCN(C(=O)[C@H]5CC[C@H](Nc6cncc(C7CCC(=O)NC7=O)c6)CC5)CC4)CC3)nc(Nc3ccccc3F)c21 (mixture of isomers) [Example 58, (3RS)-3-(5-{[(1R,4R)-4-{4-[(6-{4-[(2-fluorophenyl)amino]-3-(propan-2-yl)-3H-imidazo[4,5-c]pyridin-6-yl}-2-oxo-1-[(1S,3S)-3-(piperidin-1-yl)cyclobutyl]-1,2-dihydrospiro[indole-3,4′-piperidin]-1′-yl)carbonyl]piperidine-1-carbonyl}cyclohexyl]amino}pyridin-3-yl)piperidine-2,6-dione]"
< 100,70 to 85,"CC(C)n1cnc2cc(-c3ccc4c(c3)N([C@H]3C[C@@H](N5CCCCC5)C3)C(=O)C43CCN(C(=O)C4(C#N)CCN(C(=O)C5CCN(c6ccc(C7CCC(=O)NC7=O)cc6)CC5)CC4)CC3)nc(NC3CC3)c21 (mixture of isomers) [Example 258, 4-({6-[4-(cyclopropylamino)-3-(propan-2-yl)-3H-imidazo[4,5-c]pyridin-6-yl]-2-oxo-1-[(1S,3S)-3-(piperidin-1-yl)cyclobutyl]-1,2-dihydrospiro[indole-3,4′-piperidin]-1′-yl}carbonyl)-1-(1-{4-[(3RS)-2,6-dioxopiperidin-3-yl]phenyl}piperidine-4-carbonyl)piperidine-4-carbonitrile]"
100 to 500,70 to 85,"CC(C)n1cnc2cc(-c3ccc4c(c3)N([C@H]3C[C@@H](N5CCC[C@@H](F)C5)C3)C(=O)C43CCN(C(=O)C4(C)CCN(C(=O)C5CCN(c6ccc(C7CCC(=O)NC7=O)cn6)CC5)CC4)CC3)nc(NC3CC3)c21 (mixture of isomers) [Example 219, (3RS)-3-(6-{4-[4-({6-[4-(cyclopropylamino)-3-(propan-2-yl)-3H-imidazo[4,5-c]pyridin-6-yl]-2-oxo-1-[(1S,3S)-3-[(3R)-3-fluoropiperidin-1-yl]cyclobutyl]-1,2-dihydrospiro[indole-3,4′-piperidin]-1′-yl}carbonyl)-4-methylpiperidine-1-carbonyl]piperidin-1-yl}pyridin-3-yl)piperidine-2,6-dione]"

SMILES,DC50 [nM],Dmax [%]
"CC(C)n1cnc2cc(-c3ccc4c(c3)N([C@H]3C[C@@H](N5CCCCC5)C3)C(=O)C43CCN(C(=O)C4C5CCC4CN(C(=O)C4CCN(c6ccc(C7CCC(=O)NC7=O)cn6)CC4)C5)CC3)nc(NC3CC3)c21 (mixture of isomers) [Example 284, (3RS)-3-(6-{4-[8-({6-[4-(cyclopropylamino)-3-(propan-2-yl)-3H-imidazo[4,5-c]pyridin-6-yl]-2-oxo-1-[(1S,3S)-3-(piperidin-1-yl)cyclobutyl]-1,2-dihydrospiro[indole-3,4′-piperidin]-1′-yl}carbonyl)-3-azabicyclo[3.2.1]Octane-3-carbonyl]piperidin-1-yl}pyridin-3-yl)piperidine-2,6-dione]",< 100,70 to 85
